Assay results taken from ChEMBL document CHEMBL5113402, “Inhibition of cytochrome P450 monooxygenase-catalyzed oxylipin formation by flavonoids: Evaluation of structure-activity relationship towards CYP4F2-selective inhibitors” (Eur J Med Chem, 2022).
Values after ≈ are worked out from the molar mass of the structure shown.

Columns and labels:
[1] = target: T1, CYP450 (20-HETE formation) (Homo sapiens, UniProt P04798+P05177+P05181+P08684+P10632+P10635+P11509+P11712+P13584+P20813+P20815+P20853+P24462+P24903+P33260+P33261+P51589+P78329+P98187+Q02928+Q08477+Q16678+Q16696+Q5TCH4+Q6VVX0+Q7Z449+Q8TAV3+Q96SQ9+Q9HB55); test: Inhibition of CYP450 in human liver microsomes assessed as inhibition of 20-HETE formation at 10 uM in presence of arachidonic acid and NADPH by multi-enzyme assay based LC-MS/MS analysis relative to control; type: ADME, Microsome; details: probe arachidonic acid
[2] = target: CYP450 (EpETrE formation) (Homo sapiens, UniProt P04798+P05177+P05181+P08684+P10632+P10635+P11509+P11712+P13584+P20813+P20815+P20853+P24462+P24903+P33260+P33261+P51589+P78329+P98187+Q02928+Q08477+Q16678+Q16696+Q5TCH4+Q6VVX0+Q7Z449+Q8TAV3+Q96SQ9+Q9HB55); test: Inhibition of CYP450 in human liver microsomes assessed as inhibition of EpETrE formation at 10 uM in presence of arachidonic acid and NADPH by multi-enzyme assay based LC-MS/MS analysis relative to control; type: ADME, Microsome; details: probe arachidonic acid
[3] = target: T1, CYP450 (20-HETE formation); test: Inhibition of CYP450 in human liver microsomes assessed as inhibition of 20-HETE formation in presence of arachidonic acid and NADPH by multi-enzyme assay based LC-MS/MS analysis relative to control; type: ADME, Microsome; details: probe arachidonic acid
[4] = Inhibition of CYP450 in Sprague-Dawley rat liver microsomes assessed as inhibition of 20-HETE formation in presence of arachidonic acid and NADPH by multi-enzyme assay based LC-MS/MS analysis; type: ADME, Microsome
[5] = target: T2, Cytochrome P450 4F2 (Homo sapiens, UniProt P78329); test: Inhibition of recombinant human CYP4F2 expressed in baculovirus-infected insect cells in presence of arachidonic acid and NADPH incubated for 15 mins by jump-dilution assay relative to control; type: ADME
T2 sequence (P78329 whole entry): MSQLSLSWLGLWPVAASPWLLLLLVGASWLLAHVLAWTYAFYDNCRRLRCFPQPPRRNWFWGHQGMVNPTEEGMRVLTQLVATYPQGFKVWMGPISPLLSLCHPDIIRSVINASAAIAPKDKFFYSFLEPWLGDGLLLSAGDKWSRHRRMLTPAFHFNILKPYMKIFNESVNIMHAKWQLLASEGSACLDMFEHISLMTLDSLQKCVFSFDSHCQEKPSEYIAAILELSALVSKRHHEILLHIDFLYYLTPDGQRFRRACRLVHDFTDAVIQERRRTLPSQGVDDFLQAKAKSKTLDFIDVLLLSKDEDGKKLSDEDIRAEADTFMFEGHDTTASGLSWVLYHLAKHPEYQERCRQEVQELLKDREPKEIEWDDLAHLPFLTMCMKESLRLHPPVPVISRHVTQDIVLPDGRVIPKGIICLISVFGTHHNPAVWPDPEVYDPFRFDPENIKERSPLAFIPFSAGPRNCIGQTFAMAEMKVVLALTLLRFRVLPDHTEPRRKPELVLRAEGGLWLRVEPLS

[6] = target: T2, Cytochrome P450 4F2; test: Inhibition of recombinant human CYP4F2 expressed in baculovirus-infected insect cells in presence of arachidonic acid and NADPH incubated for 15 mins by jump-dilution assay; type: ADME
[7] = target: T3, CYP4A11 (Homo sapiens, UniProt Q02928); test: Inhibition of recombinant human CYP4A11 expressed in baculovirus-infected insect cells at 50 uM incubated for 15 mins in presence of arachidonic acid and NADPH by jump-dilution assay relative to control; type: ADME; details: probe arachidonic acid
T3 sequence (Q02928 whole entry): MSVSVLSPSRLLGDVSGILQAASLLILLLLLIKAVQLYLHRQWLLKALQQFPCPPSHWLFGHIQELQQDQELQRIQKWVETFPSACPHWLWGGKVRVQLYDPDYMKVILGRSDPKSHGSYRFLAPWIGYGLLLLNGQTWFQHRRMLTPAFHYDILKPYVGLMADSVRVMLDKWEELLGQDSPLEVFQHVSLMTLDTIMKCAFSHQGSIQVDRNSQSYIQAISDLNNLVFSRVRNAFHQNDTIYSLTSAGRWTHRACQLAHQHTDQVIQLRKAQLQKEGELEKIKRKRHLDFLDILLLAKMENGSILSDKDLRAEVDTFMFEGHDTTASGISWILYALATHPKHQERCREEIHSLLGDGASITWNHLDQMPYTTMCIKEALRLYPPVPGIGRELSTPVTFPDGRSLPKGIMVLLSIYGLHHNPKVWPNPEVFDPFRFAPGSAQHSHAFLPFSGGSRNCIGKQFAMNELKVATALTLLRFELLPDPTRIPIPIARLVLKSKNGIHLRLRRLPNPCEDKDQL

[8] = target: T4, Cytochrome P450 2J2 (Homo sapiens, UniProt P51589); test: Inhibition of recombinant human CYP2J2 expressed in baculovirus-infected insect cells in presence of arachidonic acid and NADPH incubated for 15 mins by jump-dilution assay relative to control; type: ADME
T4 sequence (P51589 whole entry): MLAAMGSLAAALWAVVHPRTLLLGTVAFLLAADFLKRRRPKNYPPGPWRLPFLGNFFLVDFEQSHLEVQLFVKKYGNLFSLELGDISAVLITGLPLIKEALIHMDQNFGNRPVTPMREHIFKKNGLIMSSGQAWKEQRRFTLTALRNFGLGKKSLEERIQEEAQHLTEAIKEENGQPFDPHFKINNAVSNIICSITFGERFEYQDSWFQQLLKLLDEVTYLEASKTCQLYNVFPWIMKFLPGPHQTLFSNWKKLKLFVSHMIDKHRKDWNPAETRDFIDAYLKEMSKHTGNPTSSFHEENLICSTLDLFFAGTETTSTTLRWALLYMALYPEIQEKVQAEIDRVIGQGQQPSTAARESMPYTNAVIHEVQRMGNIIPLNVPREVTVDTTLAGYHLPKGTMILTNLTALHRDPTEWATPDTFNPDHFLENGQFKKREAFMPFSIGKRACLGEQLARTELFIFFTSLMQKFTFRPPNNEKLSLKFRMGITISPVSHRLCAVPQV

[9] = target: T1, CYP450 (20-HETE formation); test: Inhibition of CYP450 in human HCT-116 cells assessed as 20-HETE formation in presence of arachidonic acid incubated for 15 mins by multi-enzyme assay based LC-MS/MS analysis relative to control; type: ADME, cell-based; details: probe arachidonic acid
[10] = Plasma protein binding in human assessed as bound fraction by rapid equilibrium dialysis assay; type: ADME, cell-free; details: read-out: PPB
[11] = Apparent permeability of the compound by PAMPA assay; type: ADME
[12] = Apparent permeability of the compound in human Caco-2 cells; type: ADME, cell-based
[13] = Solubility of the compound in phospahte-buffered saline buffer at pH 7.4 by shake flask method; type: physicochemical; details: phosphate-buffered saline
[14] = Drug recovery in human HCT-116 cells incubated for 24 hrs; type: ADME, cell-based; details: read-out: Drug recovery
[15] = Drug recovery in human liver microsomes assessed as UDPGA-fortified conjugation recovery in presence of arachidonic acid incubated for 30 mins; type: ADME, Microsome; details: read-out: Drug recovery

inhibition at 10 µM [1]: 53% | inhibition at 10 µM [2]: < 15% | IC50 [3]: 2.8 µM | IC50 [4]: 4.3 µM | IC50 [5]: 0.76 µM | IC50 [6]: 0.87 µM | inhibition at 0.25 h, 50 µM [7]: < 25% | IC50 [8]: 50 µM | IC50 at 15 min [9]: 1.9 µM | fraction unbound [10]: < 0.05 | Papp [11]: 4.6 ×10⁻⁶ cm/s | Papp [12]: 4.1 ×10⁻⁶ cm/s | solubility thermodynamic [13]: 3.4 µM (≈ 0.987 µg/mL) | remaining at 24 h [14]: 89% | remaining at 0.5 h [15]: > 95%
SMILES: O=c1cc(-c2ccc(C(F)(F)F)cc2)oc2ccccc12
